Data as given in patent US20250262268A1, “Methods and Compositions for Inhibiting Viral Infection” (New York Genome Center, Inc., priority 2020, published 2025).
“Also recorded” adds a separate entry of the source.

Assays:
SARS-CoV-2 [1] = assay: qPCR of SARS-CoV-2 viral load in non-targeting or PIK3C3 CRISPR-perturbed A549-ACE2 cells treated with PIK3C3 inhibitors; assay type: cell-based; settings: 10 μM, 2 hours pretreatment, MOI 0.1, 36 hpi
[2] = system: primary human CD8+ T-cells; assay: T cell activation, intracellular cytokine staining after CD3/CD28 stimulation; assay type: cell-based; settings: 10 μM, 1 hour pre-incubation
SARS-CoV-2 [3] = assay: qRT-PCR of SARS-CoV-2 viral load in inhibitor-treated A549-ACE2 cells; assay type: cell-based, SARS-CoV-2 isolate USA-WA1/2020; settings: 10 μM inhibitor, MOI 0.1, 36 hpi

SMILES: Nc1ncc(-c2ccnc(Nc3ccncc3)n2)c(CC2CC2)n1 [PIK-III]
- specificity for PIK3C3: viral inhibition in PIK3C3 CRISPR-perturbed versus non-targeting cells (SARS-CoV-2 [1]): specific

SMILES: C[C@@H]1COCCN1c1cc(=O)n2c(n1)N(Cc1cncc(Cl)c1)[C@H](C(F)(F)F)CC2 [SAR405]
- specificity for PIK3C3: viral inhibition in PIK3C3 CRISPR-perturbed versus non-targeting cells (SARS-CoV-2 [1]): greater viral inhibition in PIK3C3 CRISPR-perturbed cells; also recorded: may have some off-target effects

SMILES: Cc1cc(Nc2cc(Cl)nc(Oc3ccc([N+](=O)[O-])cc3)n2)n[nH]1 [autophinib, Autophinib]
- specificity for PIK3C3: viral inhibition in PIK3C3 CRISPR-perturbed versus non-targeting cells (SARS-CoV-2 [1]): specific

SMILES: CC[C@H](Nc1ncnc2[nH]cnc12)c1nc2cccc(F)c2c(=O)n1-c1ccccc1 [idelalisib, Idelalisib]
- release of interferon-gamma (IFNγ) by CD8+ T-cells [2]: significant reduction
- release of tumor necrosis factor (TNF) by CD8+ T-cells [2]: significant reduction

SMILES: CC/C(=C(\c1ccccc1)c1ccc(OCCN(C)C)cc1)c1ccccc1 [tamoxifen, Tamoxifen]
- reduction in SARS-CoV-2 viral load (in words) (SARS-CoV-2 [3]): substantial reduction
- effect on T-cell activation and cytokine secretion [2]: no effect
